# Entries after “also recorded” stand apart in the source; their conditions may differ. Like-named read-outs stand apart in the source and are kept apart here.
# Legend:
# [1] = test system: planktonic P. aeruginosa PAO1; assay: Minimum inhibitory concentration (MIC) determination; assay type: cell-based, Pseudomonas aeruginosa; settings: for antimicrobial activity against P. aeruginosa PAO1: up to the highest concentrations applied
# Description: The minimum inhibitory concentration (MIC) of compounds and antibiotics were performed as previously described, with minor modification. […] Three antibiotics, including tobramycin, ciprofloxacin, and meropenem, were dissolved in water and filter sterilized. Ten microliters of two-fold serially diluted antibiotics were transferred to a 96-well Costar plate (Corning Inc., Corning, MA, USA) followed by the addition of 90 µL of diluted cultures. After an 18-h incubation at 37 °C in the static condition, optical density OD600 was monitored using a Synergy 2 microplate reader (BioTek, Winooski, VT, USA). […] The MIC was determined as the lowest concentrations of antibiotics that inhibit complete bacterial growth compared to growth control.
# [2] = test system: PAO1ΔpelF (Pel deletion mutant); assay: Biofilm inhibition assay (OD600 growth and resazurin biofilm viability); assay type: cell-based, Pseudomonas aeruginosa
# Description: (§1) Figure 2 Biofilm assays to identify compounds that prevent biofilm formation. Biofilm inhibition assay. P. aeruginosa cultures were seeded into 384-well plates after dispensing compounds and antibiotics. The plates were incubated for 24 h at 37 °C followed by recording bacterial growth (OD600) and measuring the viability of biofilm bacteria using resazurin.
# (§2) The overnight cultures at 37 °C in LB medium were washed once with sterile saline 0.9% (w/v) and adjusted to an OD600 of 0.05, and 1% inoculum was transferred into a fresh LB medium. Following incubation at 37 °C, 200 rpm for 6–6.5 h to reach the mid-log phase, the cells were washed once with sterile saline 0.9% and diluted to an OD600 of 0.01. Then, 45 µL aliquots were dispensed into 384-well plates (Greiner Bio-One, Kremsmünster, Austria, catalog no. 781091). In biofilm inhibition assays, test compounds (5 µL) were loaded prior to the addition of bacteria. The plates were incubated for 24 h at 37 °C in static conditions. The effects of compounds on bacterial growth and viability of biofilm bacteria were determined by the OD600 and resazurin metabolic assay, respectively. The final concentrations of DMSO in the assays were 1–2%. The negative controls or untreated cultures consisted of inoculum and different concentrations of DMSO. Antibiotic ciprofloxacin (0.25 µg/mL and 25 µg/mL) was used as positive controls. The initial OD600 and final OD600 were read before incubation at 37 °C and after 24 h incubation, respectively, followed by assessment of biofilm viability by resazurin metabolic assay. The experiments were carried out with three technical replicates and repeated at least twice. The growth inhibition was calculated as a function of the percentage of the total bacterial inhibition using Equation (1), where AB is the OD600 of LB medium, and AT0 and ATf are the OD600 recorded at inoculating time and at the end of the assay. (1) % Inhibition=100 × [ 1 − [OD600 (Asample Tf− Asample T0)−(AB Tf − AB T0)/OD600 (Anegative control Tf− Anegative control T0)−(AB Tf − AB T0)]]
# (§3) Resazurin sodium salt (Sigma-Aldrich, St. Louis, MI, USA) was dissolved in Milli-Q water at 0.2% (w/v) and filter sterilized. The solution was stored at −20 °C in the dark. The assay was performed as previously described with modification. The cultures were withdrawn, and the plates were washed three times with sterile water using the plate washer (BioTek). To remove the remaining water in the wells, the plates were tapped with autoclaved paper towels. An amount of 50 µL of diluted RSZ solution in LB medium was added into each well, followed by incubation at 37 °C for 5–6 h. A microplate reader (BioTek Synergy 2) was used to measure the fluorescence intensity (excitation 530 nm, emission 590 nm). Data collected were determined as a function of fluorescence percentage using Equation (2), where FB is the fluorescence of the diluted RSZ solution in LB medium in the absence of P. aeruginosa cells. (2) % Inhibition=[(Fnegative control −FB )−(Fsample −FB )/(Fnegative control − FB )]×100
# [3] = test system: PDO300 (mucoid, alginate-overproducing mutant); assay: as above; assay type: cell-based, Pseudomonas aeruginosa
# Description: as §1, §2, §3
# [4] = test system: PDO300Δalg8 (alginate deletion mutant); assay: as above; assay type: cell-based, Pseudomonas aeruginosa
# Description: as §1, §2, §3
# [5] = test system: wild-type P. aeruginosa PAO1; assay: as above; assay type: cell-based, Pseudomonas aeruginosa
# Description: as §1, §2, §3
# [6] = Stability in liver microsomes; assay type: in vitro ADME, mouse; settings: for hepatic extraction: calculated from microsomal half-life, fu = 1 assumed; for level of hepatic extraction: classification system of Houston 1994; for half-life at 1 µM: male, CD-1, mouse, liver microsomes
# Description: (§4) The metabolic assays were performed based on a previously described method. […] The final organic (ACN) concentration in the incubation tubes was 1%. […] Samples (50 μL) were removed at t = 0 (immediately after reaction start), 5, 10, 20, 30, and 60 min. Samples were added to microcentrifuge tubes containing 150 μL of ice-cold acetonitrile containing internal standard (clotrimazole; for […] = 10.0 ng/mL + 0.5% (v/v) formic acid; for 1 and 2 = 2.0 ng/mL + 0.5% (v/v) formic acid; for VPL = 20.0 ng/mL + 0.1% (v/v) formic acid). Tubes were centrifuged (13,000× g, 5 min), and ~135 μL of supernatant transferred to polypropylene 96-well plates for analysis.
# (§5) Chromatographic separation was achieved using a biphenyl column [Kinetix, 100 mm × 4.6 mm, 2.6 μm; Phenomenex (Sydney, Australia)], coupled with a gradient elution with mobile phases containing acetonitrile/H2O/0.5% formic acid. Analysis was conducted in positive ion multiple reaction monitoring (MRM) mode with argon as the collision gas. Optimum MS/MS conditions were established prior to incubations by direct infusion of individual solutions of 1, 2, and 3 into the LC-MS/MS. To ensure adequate sensitivity of analysis, multiple mass transitions were summed for all three test compounds.
# (§6) LN % remaining vs. time data for each data set were fitted to an exponential decay function to determine the first-order rate constant (k) for substrate depletion. For Equations (5)–(7), scaling parameters used were described elsewhere.
# [7] = Stability in liver microsomes; assay type: in vitro ADME, human; settings: for half-life at 1 µM: both sexes, human, liver microsomes
# Description: as §4, §5, §6
# P. aeruginosa = test system: P. aeruginosa; set-up: method as in PMID 24801877; settings: previous work, different culture medium and inoculum possible; cited from earlier work
# [8] = compound 69.1 µg/mL + ciprofloxacin 1/4 MIC (0.0625 µg/mL)
# [9] = pH 7.4, no NRS, compound 1 between 20 and 60 min, compound 2 over 30 min, read-out: half-life of degradation, negative control (no NRS added)
# [10] = pH 7.4, with NADPH regeneration system, 1.0 µM, 0.5 mg/mL microsomes, read-out: half-life of degradation
# [11] = compound 86.2 µg/mL + ciprofloxacin 1/3 MIC (0.083 µg/mL), 24 h
smiles,measurement,setting,value
"COc1c(Br)cc(/C=C/C(=O)NCCCNCCCCN)cc1Br [Compound 2, ianthelliformisamine B]",antimicrobial activity against P. aeruginosa PAO1,[1],no antimicrobial activity
same,improvement of biofilm suppression by addition of ciprofloxacin,[2]; ciprofloxacin 1/3 MIC added,20%
same,improvement of biofilm suppression by addition of ciprofloxacin,[2]; ciprofloxacin 1/4 MIC added,13%
same,growth inhibition and antibiofilm activity,[2]; [8],caused growth inhibition and antibiofilm activity
same,blockage of cellular progression (growth),[3]; compound alone,> 50%
same,blockage of cellular progression (growth),[3]; in the presence of ciprofloxacin at 1/3 and 1/4 MICs,> 70%
same,survival compromised,[4]; compound + ciprofloxacin at 1/3 MIC,60%
same,survival compromised,[4]; compound + ciprofloxacin at 1/4 MIC,40%
same,susceptibility of biofilms,[4]; compound + ciprofloxacin at 1/4 and 1/3 MIC,much less susceptible
same,growth inhibition and antibiofilm activity,[5]; [8],caused growth inhibition and antibiofilm activity
same,antimicrobial activity / prevention of biofilm formation,"[5]; compound alone, 24 h",did not yield any antimicrobial activity and/or prevented biofilm formation
same,metabolic stability,[6],moderate degradation; also recorded: moderately degraded
same,hepatic extraction,[6],0.42
same,level of hepatic extraction,[6],intermediate
same,half-life at 1 µM,[6]; [9],90 min
same,half-life at 1 µM,[6]; [10],42.8 ± 7.6 min
same,metabolic stability,[7],moderate degradation; also recorded: moderately degraded
same,half-life at 1 µM,"[7]; pH 7.4, no NRS, 30-min incubation, read-out: half-life of degradation, negative control (no NRS added)",103 min
same,half-life at 1 µM,[7]; [10],35.7 ± 2.1 min
same,hepatic extraction,"[7]; calculated from microsomal half-life, fu = 1 assumed",0.61
same,level of hepatic extraction,[7]; classification system of Houston 1994,intermediate
same,MIC,P. aeruginosa,> 138.2 µg/mL
"COc1c(Br)cc(/C=C/C(=O)NCCCNCCCCNCCCN)cc1Br [Compound 1, ianthelliformisamine A]",antimicrobial activity against P. aeruginosa PAO1,[1],no antimicrobial activity
same,growth disruption,[2]; [11],> 90%
same,prevention of biofilm formation,[2]; [11],> 90%
same,biofilm effect,[3]; compound 43.1 µg/mL + ciprofloxacin 1/3 and 1/4 MICs,approximately 100%
same,biofilm effect,[3]; compound alone at 43.1 µg/mL,20%
same,growth inhibition,[3]; compound alone at 43.1 µg/mL and 86.2 µg/mL,> 70%
same,reduction of biofilm formation,[3]; compound alone at 86.2 µg/mL,~ 80%
same,activity against biofilm bacteria,[4],< 60%
same,effect on planktonic counterparts,[4],significant death
same,growth disruption,[5]; [11],> 90%
same,prevention of biofilm formation,[5]; [11],> 90%
same,antimicrobial activity / prevention of biofilm formation,"[5]; compound alone, 24 h",did not yield any antimicrobial activity and/or prevented biofilm formation
same,metabolic stability,[6],moderate degradation
same,hepatic extraction,[6],0.48
same,level of hepatic extraction,[6],intermediate
same,half-life at 1 µM,[6]; [9],~45 min
same,half-life at 1 µM,[6]; [10],38.2 min
same,metabolic stability,[7],substantial instability; also recorded: significant instability
same,MIC,P. aeruginosa,172.4 µg/mL
"COc1c(Br)cc(/C=C/C(=O)NCCCNCCCCNCCCNC(=O)/C=C/c2cc(Br)c(OC)c(Br)c2)cc1Br [Compound 3, ianthelliformisamine C]",MIC,"[1]; Pseudomonas aeruginosa, planktonic (free-living) PAO1, LB medium, 18 h, 37 °C",53.1 µg/mL
same,biofilm response (reduction),[2]; combinations of compound with ciprofloxacin,~ 60%
same,"synergistic interaction with ciprofloxacin, planktonic forms and biofilms",[2]; compound 53.1 µg/mL,negligible synergistic interactions
same,interaction with ciprofloxacin on biofilm,"[2]; compound 106.2 µg/mL, ciprofloxacin 1/4 MIC",antagonized
same,biofilm response (reduction),[2]; compound alone 106.2 µg/mL,~ 40%
same,planktonic growth inhibition,[2]; compound alone 106.2 µg/mL,independently inhibited planktonic growth
same,effect on free-living cells,[3]; compound alone,eradicated
same,reduction of biofilm viability,[3]; compound alone,~ 100%
same,effect on free-living cells,[4]; compound alone,eradicated
same,reduction of biofilm viability,[4]; compound alone,80%
same,"synergistic interaction with ciprofloxacin, planktonic forms and biofilms",[5]; compound 53.1 µg/mL,negligible synergistic interactions
same,planktonic growth inhibition,[5]; compound alone 106.2 µg/mL,independently inhibited planktonic growth
same,killing of biofilm bacteria,"[5]; compound alone, 24 h",≤ 60%
same,killing of free-living bacteria,"[5]; compound alone, 24 h",up to 30%
same,metabolic stability,[6],metabolically stable
same,metabolic stability,[7],metabolically stable
same,MIC,P. aeruginosa,~ 26.55 µg/mL

# Source: PMC10299588, “Bromotyrosine-Derived Metabolites from a Marine Sponge Inhibit Pseudomonas aeruginosa Biofilms” (International Journal of Molecular Sciences, 2023)
